Reference: patent publication US8329717B2, “Pyrimidine derivatives and their use for controlling undesired plant growth” (Bayer Cropscience AG, priority 2008, dated 2012)

Legend:
[1] = logp (HCOOH), chemicophysical data; details: for chromatographic logP: HCOOH (formic acid)
Stellaria media [2] = assay: Pre-emergence herbicidal effect; assay type: in vivo; details: Dosage 320 g/ha, visual scoring after 3 weeks vs untreated controls, 100% = plants have died
Text: (§1) 1. Pre-Emergence Herbicidal Effect and Crop Plant Compatibility Seeds of monocotyledonous or dicotyledonous weed plants or crop plants are planted in wood-fiber pots in sandy loam and covered with earth. The compounds according to the invention, formulated in the form of wettable powders (WP) or as emulsion concentrates (EC), are then applied as aqueous suspension or emulsion at a water application rate of 600 to 800 l/ha (converted) with the addition of 0.2% of wetting agent to the surface of the covering earth. The dosage of the compounds according to the invention is given in grams per hectare. Following the treatment, the pots are placed in a greenhouse and kept under good growth conditions for the test plants. The visual scoring of the damage on the test plants is carried out after an experiment time of 3 weeks in comparison with untreated controls (herbicidal effect in percent (%): 100% effect=plants have died, 0% effect=as control plants). The following abbreviations are used in the tables below: [table]

Viola tricolor [3] = assay: Pre-emergence herbicidal effect; assay type: in vivo; details: Dosage 320 g/ha, visual scoring after 3 weeks vs untreated controls, 100% = plants have died
Text: as §1

Amaranthus retroflexus [4] = assay: Pre-emergence herbicidal effect; assay type: in vivo; details: Dosage 320 g/ha, visual scoring after 3 weeks vs untreated controls, 100% = plants have died
Text: as §1

Setaria viridis [5] = assay: Pre-emergence herbicidal effect; assay type: in vivo; details: Dosage 320 g/ha, visual scoring after 3 weeks vs untreated controls, 100% = plants have died
Text: as §1

Matricaria inodora [6] = assay: Pre-emergence herbicidal effect; assay type: in vivo; details: Dosage 320 g/ha, visual scoring after 3 weeks vs untreated controls, 100% = plants have died
Text: as §1

Cyperus esculentus = assay: Pre-emergence herbicidal effect; assay type: in vivo; details: Dosage 320 g/ha, visual scoring after 3 weeks vs untreated controls, 100% = plants have died
Text: as §1

Veronica persica [7] = assay: Pre-emergence herbicidal effect; assay type: in vivo; details: Dosage 320 g/ha, visual scoring after 3 weeks vs untreated controls, 100% = plants have died
Text: as §1

Stellaria media [8] = assay: Post-emergence herbicidal effect; assay type: in vivo; details: Dosage 320 g/ha, one-leaf stage, visual scoring after ca. 3 weeks vs untreated controls, 100% = plants have died
Description: (§2) The following abbreviations are used in the tables below: [table] 2. Post-Emergence Herbicidal Effect and Crop Plant Compatibility Seeds of monocotyledonous or dicotyledonous weed plants or crop plants are planted in wood-fiber pots in sandy loam, covered with earth and grown in a greenhouse under good growth conditions. 2 to 3 weeks after sowing, the test plants are treated in the one-leaf stage. The compounds according to the invention, formulated in the form of wettable powders (WP) or as emulsion concentrates (EC), are then sprayed onto the green plant parts as aqueous suspension or emulsion at a water application rate of 600 to 800 l/ha (converted) with the addition of 0.2% of wetting agent. The dosage of the compounds according to the invention is given in grams per hectare. After ca. 3 weeks' standing time of the test plants in the greenhouse under optimum growth conditions, the effect of the preparations is scored visually in comparison with untreated controls (herbicidal effect in percent (%): 100% effect=plants have died, 0% effect=as control plants).

Amaranthus retroflexus [9] = assay: Post-emergence herbicidal effect; assay type: in vivo; details: Dosage 320 g/ha, one-leaf stage, visual scoring after ca. 3 weeks vs untreated controls, 100% = plants have died
Description: as §2

Echinochloa crus-galli [10] = assay: Post-emergence herbicidal effect; assay type: in vivo; details: Dosage 320 g/ha, one-leaf stage, visual scoring after ca. 3 weeks vs untreated controls, 100% = plants have died
Description: as §2

Lolium multiflorum [11] = assay: Post-emergence herbicidal effect; assay type: in vivo; details: Dosage 320 g/ha, one-leaf stage, visual scoring after ca. 3 weeks vs untreated controls, 100% = plants have died
Description: as §2

Veronica persica [12] = assay: Post-emergence herbicidal effect; assay type: in vivo; details: Dosage 320 g/ha, one-leaf stage, visual scoring after ca. 3 weeks vs untreated controls, 100% = plants have died
Description: as §2

Alopecurus myosuroides [13] = assay: Post-emergence herbicidal effect; assay type: in vivo; details: Dosage 320 g/ha, one-leaf stage, visual scoring after ca. 3 weeks vs untreated controls, 100% = plants have died
Description: as §2

Echinochloa crus-galli [14] = assay: Pre-emergence herbicidal effect; assay type: in vivo; details: Dosage 320 g/ha, visual scoring after 3 weeks vs untreated controls, 100% = plants have died
Text: as §1

Lolium multiflorum [15] = assay: Pre-emergence herbicidal effect; assay type: in vivo; details: Dosage 320 g/ha, visual scoring after 3 weeks vs untreated controls, 100% = plants have died
Text: as §1

Alopecurus myosuroides [16] = assay: Pre-emergence herbicidal effect; assay type: in vivo; details: Dosage 320 g/ha, visual scoring after 3 weeks vs untreated controls, 100% = plants have died
Text: as §1

Polygonum convolvulus [17] = assay: Post-emergence herbicidal effect; assay type: in vivo; details: Dosage 320 g/ha, one-leaf stage, visual scoring after ca. 3 weeks vs untreated controls, 100% = plants have died
Description: as §2

Viola tricolor [18] = assay: Post-emergence herbicidal effect; assay type: in vivo; details: Dosage 320 g/ha, one-leaf stage, visual scoring after ca. 3 weeks vs untreated controls, 100% = plants have died
Description: as §2

Setaria viridis [19] = assay: Post-emergence herbicidal effect; assay type: in vivo; details: Dosage 320 g/ha, one-leaf stage, visual scoring after ca. 3 weeks vs untreated controls, 100% = plants have died
Description: as §2

Matricaria inodora [20] = assay: Post-emergence herbicidal effect; assay type: in vivo; details: Dosage 320 g/ha, one-leaf stage, visual scoring after ca. 3 weeks vs untreated controls, 100% = plants have died
Description: as §2

Abutilon theophrasti [21] = assay: Post-emergence herbicidal effect; assay type: in vivo; details: Dosage 320 g/ha, one-leaf stage, visual scoring after ca. 3 weeks vs untreated controls, 100% = plants have died
Description: as §2

PHBPU = assay: Post-emergence herbicidal effect; assay type: in vivo; details: Dosage 320 g/ha, one-leaf stage, visual scoring after ca. 3 weeks vs untreated controls, 100% = plants have died
Description: as §2, with “2.” for “The following abbreviations are used in the tables below: [table] 2.”

Polygonum convolvulus [22] = assay: Pre-emergence herbicidal effect; assay type: in vivo; details: Dosage 320 g/ha, visual scoring after 3 weeks vs untreated controls, 100% = plants have died
Text: as §1

Avena fatua = assay: Pre-emergence herbicidal effect; assay type: in vivo; details: Dosage 320 g/ha, visual scoring after 3 weeks vs untreated controls, 100% = plants have died
Text: as §1

Abutilon theophrasti [23] = assay: Pre-emergence herbicidal effect; assay type: in vivo; details: Dosage 320 g/ha, visual scoring after 3 weeks vs untreated controls, 100% = plants have died
Text: as §1

Structure (SMILES) | Pre-emergence herbicidal effect STEME (Stellaria media [2]) [%] | Pre-emergence herbicidal effect VIOTR (Viola tricolor [3]) [%] | Pre-emergence herbicidal effect AMARE (Amaranthus retroflexus [4]) [%] | Pre-emergence herbicidal effect SETVI (Setaria viridis [5]) [%] | Pre-emergence herbicidal effect MATIN (Matricaria inodora [6]) [%] | Pre-emergence herbicidal effect VERPE (Veronica persica [7]) [%] | Post-emergence herbicidal effect STEME (Stellaria media [8]) [%] | Post-emergence herbicidal effect AMARE (Amaranthus retroflexus [9]) [%] | Post-emergence herbicidal effect ECHCG (Echinochloa crus-galli [10]) [%] | Post-emergence herbicidal effect LOLMU (Lolium multiflorum [11]) [%] | Post-emergence herbicidal effect VERPE (Veronica persica [12]) [%] | Post-emergence herbicidal effect ALOMY (Alopecurus myosuroides [13]) [%] | Pre-emergence herbicidal effect ECHCG (Echinochloa crus-galli [14]) [%] | Pre-emergence herbicidal effect LOLMU (Lolium multiflorum [15]) [%] | Pre-emergence herbicidal effect ALOMY (Alopecurus myosuroides [16]) [%] | Post-emergence herbicidal effect POLCO (Polygonum convolvulus [17]) [%] | Post-emergence herbicidal effect VIOTR (Viola tricolor [18]) [%] | Post-emergence herbicidal effect MATIN (Matricaria inodora [20]) [%] | Post-emergence herbicidal effect ABUTH (Abutilon theophrasti [21]) [%] | Post-emergence herbicidal effect PHBPU (PHBPU) [%] | further results
Cc1ccc2c(c1)[C@H](Nc1ncc(C#C[Si](C)(C)C)c(N)n1)[C@@H](C)C2 [Example 1.98, N2-[(1R,2S)-2,6-Dimethyl-2,3-dihydro-1H-inden-1-yl]-5-[(trimethylsilyl)ethynyl]-pyrimidine-2,4-diamine] | 100 | 100 | 80 | 80 | 80 | 100 |  |  |  |  |  |  |  |  |  |  |  |  |  |  | chromatographic logP [1]: 2.28; Pre-emergence herbicidal effect CYPES (Cyperus esculentus): 100%
Cc1nc(NC2CCOc3ccccc32)nc(N)c1C#N (racemic) [Example 1.25] | 100 | 90 | 100 | 100 | 100 | 100 | 100 | 90 | 90 | 95 | 95 | 90 | 100 | 100 | 100 |  |  |  |  |  | logp (HCOOH) ([1]; HCOOH): solid, m.p.: 213.3° C.; logp (HCOOH): 1.55; 1H-NMR (CDCl3, 400 MHZ, δ in ppm): 2.10; Pre-emergence herbicidal effect CYPES (Cyperus esculentus): 100%
Cc1ccc2c(c1)[C@H](Nc1nc(C)c([N+](=O)[O-])c(N)n1)[C@@H](C)C2 [Example 1.120] | 100 | 100 | 100 | 100 | 100 | 100 | 85 | 90 | 100 |  | 90 |  | 100 | 90 | 100 | 80 | 90 | 80 | 90 | 100 | Post-emergence herbicidal effect SETVI (Setaria viridis [19]): 85%; Pre-emergence herbicidal effect POLCO (Polygonum convolvulus [22]): 100%; Pre-emergence herbicidal effect AVEFA (Avena fatua): 80%
Cc1nc(NC2CCc3ccccc32)nc(N)c1C#N (racemic) [Example 1.24] |  |  |  |  |  |  | 100 |  | 90 | 100 | 90 |  |  |  |  |  |  | 80 |  |  | 
Cc1nc(N[C@@H]2CCOc3c(F)cccc32)nc(N)c1C#N [Example 1.26] | 100 | 100 | 100 | 100 | 100 | 100 | 90 | 85 | 90 | 90 | 95 | 85 | 100 | 100 | 100 | 80 | 85 | 80 | 80 | 90 | Pre-emergence herbicidal effect POLCO (Polygonum convolvulus [22]): 90%; Pre-emergence herbicidal effect AVEFA (Avena fatua): 90%; Pre-emergence herbicidal effect ABUTH (Abutilon theophrasti [23]): 80%
CC[C@H]1Cc2ccc(C)cc2[C@@H]1Nc1nc(C)c(C#N)c(N)n1 [Example 1.96] | 100 | 100 | 100 | 100 | 100 | 100 | 95 | 85 | 85 | 90 | 85 | 80 | 100 | 100 | 100 | 85 | 85 |  | 85 | 90 | Post-emergence herbicidal effect SETVI (Setaria viridis [19]): 85%; Pre-emergence herbicidal effect POLCO (Polygonum convolvulus [22]): 100%; Pre-emergence herbicidal effect AVEFA (Avena fatua): 80%
Cc1ccc2c(c1)[C@H](Nc1ncc(Br)c(N)n1)[C@@H](C)C2 [Example 1.67, 5-Bromo-N2-[(1R,2S)-2,6-dimethyl-2,3-dihydro-1H-inden-1-yl]pyrimidine-2,4-diamine] | 100 | 100 | 100 | 100 | 100 | 100 | 90 | 90 | 95 | 87 | 85 | 85 | 100 | 95 | 95 | 85 | 80 | 80 | 90 | 93 | chromatographic logP [1]: 1.3; Post-emergence herbicidal effect SETVI (Setaria viridis [19]): 87%; Pre-emergence herbicidal effect POLCO (Polygonum convolvulus [22]): 100%; Pre-emergence herbicidal effect AVEFA (Avena fatua): 80%; Pre-emergence herbicidal effect ABUTH (Abutilon theophrasti [23]): 90%
